The test system of assay [1] is T47D (PI3Kα-H1047R) cell line. Put plainly: HTRF phospho-AKT(S473) cell assay in T47D cells. Format: cell-based, human. Conditions: Homo sapiens, 2 hours compound incubation. The gist of the method: (§1)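 pAKT(S473) in lysates read by HTRF after a 2 h, 37 °C compound exposure (12-point 1:3 series, max 0.5% DMSO). SKBR3 (wild type, top 10 μM) received 70 ng/ml PDGF-BB during the final 15 min; T47D (H1047R, top 5 μM) was unstimulated. IC50 values derived from the dose-response.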
(In TR-FRET formats the signal depends on donor and acceptor labels being close together.)

The subject of assay [2] is SKBR3 (PI3Kα-Wild Type) cell line. Put plainly: HTRF phospho-AKT(S473) cell assay in SKBR3 cells. It counts as cell-based, human. Conditions: Homo sapiens, SK-BR-3, 2 hours compound incubation, PDGF-BB stimulated. The essentials:
as §1

The mark [3] stands for this setting: T47D (PI3Kα-H1047R) cells, HTRF phospho-AKT(S473).
The mark [4] stands for this setting: SKBR3 (PI3Kα-Wild Type) cells, HTRF phospho-AKT(S473).
[5] abbreviates: HTRF phospho-AKT(S473), T47D (PI3Kα-H1047R) cells.
[6] abbreviates: HTRF phospho-AKT(S473), SKBR3 (PI3Kα-Wild Type) cells.
The mark [7] stands for this setting: T47D (PI3Kα-H1047R) cell line, phospho-AKT(S473) HTRF.
[8] abbreviates: SKBR3 (PI3Kα-Wild Type) cell line, phospho-AKT(S473) HTRF.

Usually IC50 stands for the concentration at which inhibition is half-maximal. Consider `Cc1cc([C@@H](C)Nc2ccc(Cl)nc2C(=O)NS(C)(=O)=O)c2nc(N3Cc4cn(-c5ccccc5C)nc4C3)n(C)c(=O)c2c1` [Compound 189, (R)-6-chloro-3-((1-(3,6-dimethyl-4-oxo-2-(2-(o-tolyl)-2,6-dihydropyrrolo[3,4-c]pyrazol-5(4H)-yl)-3,4-dihydroquinazolin-8-yl)ethyl)amino)-N-(methylsulfonyl) picolinamide], for which the IC50 in assay [1] (setting [3]) is 0.25 to 0.5 µM; in assay [2] (setting [4]) it was at least 5 µM.

`Cc1cc([C@@H](C)Nc2ccc(Cl)nc2C(=O)NS(C)(=O)=O)c2nc([C@H]3[C@@H]4CN(c5cnc(C)c(F)c5)C[C@@H]43)n(C)c(=O)c2c1` [Compound 828, 6-chloro-3-(((R)-1-(2-((1R,5S,6r)-3-(5-fluoro-6-methylpyridin-3-yl)-3-azabicyclo[3.1.0]hexan-6-yl)-3,6-dimethyl-4-oxo-3,4-dihydroquinazolin-8-yl)ethyl)amino)-N-(methylsulfonyl) picolinamide]: the figures for the IC50 in assay [1] (setting [5]) and in assay [2] (setting [6]) were 0.5 to 1 µM and at least 5 µM, respectively.

With `Cc1cc([C@@H](C)Nc2ccc(Cl)nc2C(=O)NS(C)(=O)=O)c2nc(N3CCC(c4nn(C)cc4F)CC3)n(C)c(=O)c2c1` [Compound 247, (R)-6-chloro-3-((1-(2-(4-(4-fluoro-1-methyl-1H-pyrazol-3-yl)piperidin-1-yl)-3,6-dimethyl-4-oxo-3,4-dihydroquinazolin-8-yl)ethyl)amino)-N-(methylsulfonyl) picolinamide], the figures for the IC50 in assay [1] (setting [3]) and in assay [2] (setting [4]) were below 0.25 µM and 1 to 5 µM, respectively.

In the case of `Cc1cc([C@@H](C)Nc2ccc(Cl)nc2C(=O)NS(C)(=O)=O)c2nc([C@H]3[C@@H]4CN(c5ccnc(C)n5)C[C@@H]43)n(C)c(=O)c2c1` [Compound 853, 6-chloro-3-(((R)-1-(3,6-dimethyl-2-((1R,5S,6r)-3-(2-methylpyrimidin-4-yl)-3-azabicyclo[3.1.0]hexan-6-yl)-4-oxo-3,4-dihydroquinazolin-8-yl)ethyl)amino)-N-(methylsulfonyl) picolinamide], the IC50 in assay [1] (setting [7]) was 0.25 to 0.5 µM; in assay [2] (setting [8]), at least 5 µM.

Turning to `C[C@@H](Nc1ccc(Cl)nc1C(=O)NS(C)(=O)=O)c1cc(C(F)(F)F)cc2c(=O)n(C)c(N3CCC(c4nn(C)cc4F)CC3)nc12` [Compound 453, (R)-6-chloro-3-((1-(2-(4-(4-fluoro-1-methyl-1H-pyrazol-3-yl)piperidin-1-yl)-3-methyl-4-oxo-6-(trifluoromethyl)-3,4-dihydroquinazolin-8-yl)ethyl)amino)-N-(methylsulfonyl) picolinamide], the IC50 was below 0.25 µM in assay [1] (setting [5]) and at least 5 µM in assay [2] (setting [6]).

Consider `Cc1cc([C@@H](C)Nc2ccc(Cl)nc2C(=O)NS(C)(=O)=O)c2nc(N3[C@@H]4CC[C@H]3C[C@@H](c3ccn(C)n3)C4)n(C)c(=O)c2c1` [Compound 340, 6-chloro-3-(((R)-1-(3,6-dimethyl-2-((1R,3R,5S)-3-(1-methyl-1H-pyrazol-3-yl)-8-azabicyclo[3.2.1]octan-8-yl)-4-oxo-3,4-dihydroquinazolin-8-yl)ethyl)amino)-N-(methylsulfonyl) picolinamide], for which the IC50 in assay [1] (setting [3]) was 0.25 to 0.5 µM; in assay [2] (setting [4]), at least 5 µM.

As to `Cc1cc([C@@H](C)Nc2ccc(Cl)nc2C(=O)NS(C)(=O)=O)c2nc(-c3ccc4nn(-c5ncccn5)cc4c3)n(C)c(=O)c2c1` [Compound 850, (R)-6-chloro-3-((1-(3,6-dimethyl-4-oxo-2-(2-(pyrimidin-2-yl)-2H-indazol-5-yl)-3,4-dihydroquinazolin-8-yl)ethyl)amino)-N-(methylsulfonyl) picolinamide], the IC50 in assay [1] (setting [7]) is below 0.25 µM; in assay [2] (setting [8]), 1 to 5 µM.

On to `Cc1cc([C@@H](C)Nc2ccc(Cl)nc2C(=O)NS(C)(=O)=O)c2nc(-c3ccc4nc(C)oc4c3)n(C)c(=O)c2c1` [Compound 789, (R)-6-chloro-3-((1-(3,6-dimethyl-2-(2-methylbenzo[d]oxazol-6-yl)-4-oxo-3,4-dihydroquinazolin-8-yl)ethyl)amino)-N-(methylsulfonyl) picolinamide], for which the IC50 in assay [1] (setting [5]) was below 0.25 µM; in assay [2] (setting [6]), 1 to 5 µM.

`Cc1cc([C@@H](C)Nc2ccc(Cl)nc2C(=O)NS(C)(=O)=O)c2nc(N3CCN(c4ccnc(C(F)F)n4)CC3)n(C)c(=O)c2c1` [Compound 649, (R)-6-chloro-3-((1-(2-(4-(2-(difluoromethyl)pyrimidin-4-yl)piperazin-1-yl)-3,6-dimethyl-4-oxo-3,4-dihydroquinazolin-8-yl)ethyl)amino)-N-(methylsulfonyl) picolinamide]: the IC50 in assay [1] (setting [5]) was below 0.25 µM; in assay [2] (setting [6]), 1 to 5 µM.

`Cc1cc([C@@H](C)Nc2ccc(Cl)nc2C(=O)NS(C)(=O)=O)c2nc(-c3ccc([C@@H]4CN(C)CCO4)cc3)n(C)c(=O)c2c1` (relative stereo) [Compound 803, 6-chloro-3-(((R)-1-(3,6-dimethyl-2-(4-((R*)-4-methylmorpholin-2-yl)phenyl)-4-oxo-3,4-dihydroquinazolin-8-yl)ethyl)amino)-N-(methylsulfonyl) picolinamide]: the IC50 in assay [1] (setting [5]) is below 0.25 µM; in assay [2] (setting [6]) it was at least 5 µM.

For `Cc1cc([C@@H](C)Nc2ccc(Cl)nc2C(=O)NS(C)(=O)=O)c2nc(N3CCC(c4nccc(C)n4)CC3)n(C)c(=O)c2c1` [Compound 468, (R)-6-chloro-3-((1-(3,6-dimethyl-2-(4-(4-methylpyrimidin-2-yl)piperidin-1-yl)-4-oxo-3,4-dihydroquinazolin-8-yl)ethyl)amino)-N-(methylsulfonyl) picolinamide], the IC50 is below 0.25 µM in assay [1] (setting [5]) and at least 5 µM in assay [2] (setting [6]).

In the case of `COc1ccc(N2C[C@@H]3C[C@H]2CN3c2nc3c([C@@H](C)Nc4ccc(Cl)nc4C(=O)NS(C)(=O)=O)cc(C)cc3c(=O)n2C)cn1` [Compound 636, 6-chloro-3-(((R)-1-(2-((1S,4S)-5-(6-methoxypyridin-3-yl)-2,5-diazabicyclo [2.2.1]heptan-2-yl)-3,6-dimethyl-4-oxo-3,4-dihydroquinazolin-8-yl)ethyl)amino)-N-(methylsulfonyl) picolinamide], the half-inhibitory concentration (IC50) in assay [1] (setting [5]) is 0.25 to 0.5 µM; in assay [2] (setting [6]), at least 5 µM.

On to `COc1cnc(C2CCN(c3nc4c([C@@H](C)Nc5ccc(Cl)nc5C(=O)NS(C)(=O)=O)cc(C)cc4c(=O)n3C)CC2)nc1` [Compound 487, (R)-6-chloro-3-((1-(2-(4-(5-methoxypyrimidin-2-yl)piperidin-1-yl)-3,6-dimethyl-4-oxo-3,4-dihydroquinazolin-8-yl)ethyl)amino)-N-(methylsulfonyl) picolinamide], for which the IC50 in assay [1] (setting [5]) was 0.25 to 0.5 µM; in assay [2] (setting [6]), 1 to 5 µM.

In the case of `Cc1cc([C@@H](C)Nc2ccc(Cl)nc2C(=O)NS(C)(=O)=O)c2nc(N3C[C@H]4CC(c5ccn(C)n5)C[C@@H]4C3)n(C)c(=O)c2c1` (single isomer, unassigned) [Compound 425, 6-chloro-3-(((R)-1-(3,6-dimethyl-2-((3aS*,6aS*)-5-(1-methyl-1H-pyrazol-3-yl)hexahydrocyclopenta [c]pyrrol-2(1H)-yl)-4-oxo-3,4-dihydroquinazolin-8-yl)ethyl)amino)-N-(methylsulfonyl) picolinamide], the IC50 is below 0.25 µM in assay [1] (setting [3]) and at least 5 µM in assay [2] (setting [4]).

For the origin of these results see patent US12281122B1, “PI3K inhibitors” (Cogent Biosciences, Inc., priority 2023, dated 2025).
